Data from ChEMBL document CHEMBL1145222, “Synthesis and in vitro study of novel Mannich bases as antibacterial agents” (2005).

Columns and labels:
Assay type in all cases: functional
[1] = tested on: Staphylococcus aureus; assay: Zone of inhibition of Staphylococcus aureus at compound concentration of 160 mg/mL
[2] = tested on: Staphylococcus aureus; assay: Zone of inhibition of Staphylococcus aureus at compound concentration of 80 mg/mL
[3] = tested on: Bacillus subtilis; assay: Zone of inhibition of Bacillus subtilis at compound concentration of 40 mg/mL
[4] = tested on: Bacillus subtilis; assay: Zone of inhibition of Bacillus subtilis at compound concentration of 80 mg/mL
[5] = tested on: Staphylococcus aureus; assay: Zone of inhibition of Staphylococcus aureus at compound concentration of 40 mg/mL
[6] = tested on: Bacillus subtilis; assay: Zone of inhibition of Bacillus subtilis at compound concentration of 160 mg/mL
[7] = tested on: Salmonella enterica subsp. enterica serovar Typhi; assay: Zone of inhibition of Salmonella typhae at compound concentration of 40 mg/mL
[8] = tested on: Salmonella enterica subsp. enterica serovar Typhi; assay: Zone of inhibition of Salmonella typhae at compound concentration of 160 mg/mL
[9] = tested on: Klebsiella pneumoniae; assay: Zone of inhibition of Klebsiella pneumoniae at compound concentration of 40 mg/mL
[10] = tested on: Klebsiella pneumoniae; assay: Zone of inhibition of Klebsiella pneumoniae at compound concentration of 80 mg/mL
[11] = tested on: Klebsiella pneumoniae; assay: Zone of inhibition of Klebsiella pneumoniae at compound concentration of 160 mg/mL
[12] = tested on: Salmonella enterica subsp. enterica serovar Typhi; assay: Zone of inhibition of Salmonella typhae at compound concentration of 80 mg/mL
[13] = tested on: Pseudomonas aeruginosa; assay: Zone of inhibition of Pseudomonas aeruginosa at compound concentration of 80 mg/mL
[14] = tested on: Pseudomonas aeruginosa; assay: Zone of inhibition of Pseudomonas aeruginosa at compound concentration of 40 mg/mL
[15] = tested on: Escherichia coli; assay: Zone of inhibition of Escherichia coli at compound concentration of 160 mg/mL
[16] = tested on: Pseudomonas aeruginosa; assay: Zone of inhibition of Pseudomonas aeruginosa at compound concentration of 160 mg/mL
[17] = tested on: Escherichia coli; assay: Zone of inhibition of Escherichia coli at compound concentration of 40 mg/mL
[18] = tested on: Escherichia coli; assay: Zone of inhibition of Escherichia coli at compound concentration of 80 mg/mL
[19] = tested on: Escherichia coli; assay: Zone of inhibition Escherichia coli at compound concentration of 80 mg/mL
[20] = tested on: Escherichia coli; assay: Zone of inhibition Escherichia coli at compound concentration of 40 mg/mL
[21] = tested on: Escherichia coli; assay: Zone of inhibition Escherichia coli at compound concentration of 160 mg/mL
[22] = tested on: Klebsiella pneumoniae; assay: Zone of inhibition Klebsiella pneumoniae at compound concentration of 80 mg/mL
[23] = tested on: Klebsiella pneumoniae; assay: Zone of inhibition Klebsiella pneumoniae at compound concentration of 160 mg/mL
[24] = tested on: Klebsiella pneumoniae; assay: Zone of inhibition Klebsiella pneumoniae at compound concentration of 40 mg/mL
[25] = tested on: Escherichia coli; assay: Zone of inhibition Escherichia coli Escherichia coli at compound concentration of 80 mg/mL
[26] = tested on: Escherichia coli; assay: Zone of inhibition Escherichia coli Escherichia coli at compound concentration of 160 mg/mL

Compound	Inhibition [1] [mm]	Inhibition [2] [mm]	Inhibition [3] [mm]	Inhibition [4] [mm]	Inhibition [5] [mm]	Inhibition [6] [mm]	Inhibition [7] [mm]	Inhibition [8] [mm]	Inhibition [9] [mm]	Inhibition [10] [mm]	Inhibition [11] [mm]	Inhibition [12] [mm]	Inhibition [13] [mm]	Inhibition [14] [mm]	Inhibition [15] [mm]	Inhibition [16] [mm]	Inhibition [17] [mm]	Inhibition [18] [mm]	further results
CC(=O)[N-]S(=O)(=O)c1ccc(N)cc1.[Na+]	24	21	9.5	10	19.5	15													
COc1ccc(Cl)cc1C(=O)NCN(c1ccccc1)c1ccccc1			7.5	7.5		8	7.5	8.5	7	7	8	7.5							
COc1ccc(Cl)cc1C(=O)NCNc1ccc(S(=O)(=O)Nc2ncccn2)cc1	15	11.5	7	7	9.5	7.5	7	7.5	7.5	8	8.5	7	7.5	7.5	9.5	8.5	8	8.5	
Cc1cc(NS(=O)(=O)c2ccc(N)cc2)no1 [SULFAMETHOXAZOLE]	21	20.5	15.5	18.5	19.5	20	8.5	12.5	8.5	9	11.5	9					18.5	20.5	
Nc1ccc(S(=O)(=O)Nc2ncccn2)cc1 [SULFADIAZINE]	9.5	7.5	8.5	9.5	7	13.5	7	9	12.5	13.5	15	7.5			12.5		8.5	9.5	
COc1ccc(Cl)cc1C(=O)NCNc1ccc(S(=O)(=O)[N-]C(C)=O)cc1.[Na+]	22	14.5	10.5	12.5	10.5	16.5	10.5	22	10	12.5	15.5	14.5	12.5	9.5		14.5			Inhibition [19]: 10.5 mm; Inhibition [20]: 9.5 mm; Inhibition [21]: 13 mm
COc1ccc(Cl)cc1C(=O)NCN1CCOCC1	16.5	13.5	8.5	9	11	10.5			10.5	12.5	14.5		10.5	9.5	12.5	12	9.5	10.5	
COc1ccc(Cl)cc1C(=O)NCN(C)C									7	7.5	7.5		7.5	7		7.5			
COc1ccc(Cl)cc1C(=O)NCN(CCO)CCO			7	7.5		8.5													Inhibition [22]: 7.5 mm; Inhibition [23]: 7.5 mm; Inhibition [19]: 7.5 mm; Inhibition [24]: 7 mm; Inhibition [20]: 7 mm; Inhibition [21]: 8.5 mm
COc1ccc(Cl)cc1C(=O)NCNc1ccc(S(=O)(=O)NN)cc1	11	8.5	7	7.5	7.5	11.5	7	8	7	7.5	9.5	7.5	8	7.5		8.5			Inhibition [25]: 7.5 mm; Inhibition [20]: 7 mm; Inhibition [26]: 8.5 mm
Nc1ccc(S(N)(=O)=O)cc1 [SULFANILAMIDE]	25	22.5	10.5	11.5	20.5	13	7	7.5				7.5	15.5	13.5	20.5	17.5	16.5	18	
